From patent US20040235863A1, “Morpholine-bridged pyrazolopyridine derivatives” (priority 2001, published 2004)

Test system: rabbit aorta rings contracted with phenylephrine
Experiment: Vasorelaxant effect in vitro
Design: species or system Rabbits
Conditions: Oryctolagus cuniculus; isolated rabbit aorta rings, phenylephrine-induced contraction, concentration reducing height of contraction by 50%
Procedure: Vasorelaxant Effect in Vitro
Rabbits are stunned by a blow to the back of the neck and are exsanguinated. The aorta is removed, freed of adherent tissue, divided into rings 1.5 mm wide and put singly under tension in 5 ml organ baths containing carbogen-gassed Krebs-Henseleit solution at 37° C. with the following composition (mM): NaCl: 119; KCl: 4.8; CaCl2×2H2O: 1; MgSO4×7H2O: 1.4; KH2PO4: 1.2; NaHCO3: 25; glucose: 10. The force of contraction is detected with Statham UC2 cells, amplified and digitized via A/D converters (DAS-1802 HC, Keithley Instruments Munich) and recorded in parallel on chart recorders. A contraction is generated by adding phenylephrine to the bath cumulatively in increasing concentration. After several control cycles, the substance to be investigated is investigated in each further run in increasing dosage in each case, and the height of the contraction is compared with the height of the contraction reached in the last preceding run. The concentration necessary to reduce the height of the control value by 50% (IC50) is calculated from this. The standard application volume is 5 μl, and the DMSO content in the bath solution corresponds to 0.1%.

Nc1nc(-c2nn(Cc3ccccc3F)c3ncccc23)ncc1N1C2CCCC1COC2 [Example 2, 2-[1-(2-Fluorobenzyl)-1H-pyrazolo[3,4-b]pyridin-3-yl]-5-(3-oxa-9-azabicyclo[3.3.1]non-9-yl)-4-pyrimidinylamine]
IC50: 300 nM
